Measured values as given in US8962664B2, “Selective glycosidase inhibitors and uses thereof” (Simon Fraser University, priority 2006, dated 2015).

Tests used:
[1] = Stability on storage neat; type: physicochemical; conditions: stored neat at 0° C. (7 d)
Protocol: The azide obtained as described above (200 mg, 0.81 mmol) was dissolved in 3:1 THF:H2O (5 mL) and triphenylphosphine (310 mg, 1.2 mmol) was added. The solution was then stirred overnight at room temperature. Concentration of the mixture followed by flash chromatography of the resultant residue on silica gel (MeOH:EtOAc 2:3) gave 130 mg (75% yield) of (3aR,5R,6S,7R,7aR)-5-(aminomethyl)-2-propyl-5,6,7,7a-tetrahydro-3aH-pyrano[3,2-d]thiazole-6,7-diol (51) as a colourless oil. […] (7 d). ^1H NMR (500 MHz, methanol-d4): δ 0.97 (t, 3H, J=7.4 Hz), 1.63-1.67 (m, 2H), 2.43-2.49 (m, 2H), 3.39 (ddd, 1H, J=2.5, 4.1, 9.0 Hz), 3.51 (dd, 1H, J=4.1, 9.5 Hz), 3.64 (dd, 1H, J=2.5, 12.5 Hz), 3.75 (dd, 1H, J=6.1, 12.5 Hz), 4.04 (dd, 1H, J=4.4, 4.5 Hz), 4.28 (m, 1H), 6.35 (d, 1H, J=7.0 Hz).

O-GlcNAcase = O-GlcNAcase (Homo sapiens (Human), UniProt O60502); experiment: Assay for determination of KI values for inhibition of O-GlcNAcase activity; type: biochemical; conditions: pNP-GlcNAc 0.5 mM, PBS buffer pH 7.4, 37° C., Dixon plots
Sequence of O-GlcNAcase (O60502 whole entry): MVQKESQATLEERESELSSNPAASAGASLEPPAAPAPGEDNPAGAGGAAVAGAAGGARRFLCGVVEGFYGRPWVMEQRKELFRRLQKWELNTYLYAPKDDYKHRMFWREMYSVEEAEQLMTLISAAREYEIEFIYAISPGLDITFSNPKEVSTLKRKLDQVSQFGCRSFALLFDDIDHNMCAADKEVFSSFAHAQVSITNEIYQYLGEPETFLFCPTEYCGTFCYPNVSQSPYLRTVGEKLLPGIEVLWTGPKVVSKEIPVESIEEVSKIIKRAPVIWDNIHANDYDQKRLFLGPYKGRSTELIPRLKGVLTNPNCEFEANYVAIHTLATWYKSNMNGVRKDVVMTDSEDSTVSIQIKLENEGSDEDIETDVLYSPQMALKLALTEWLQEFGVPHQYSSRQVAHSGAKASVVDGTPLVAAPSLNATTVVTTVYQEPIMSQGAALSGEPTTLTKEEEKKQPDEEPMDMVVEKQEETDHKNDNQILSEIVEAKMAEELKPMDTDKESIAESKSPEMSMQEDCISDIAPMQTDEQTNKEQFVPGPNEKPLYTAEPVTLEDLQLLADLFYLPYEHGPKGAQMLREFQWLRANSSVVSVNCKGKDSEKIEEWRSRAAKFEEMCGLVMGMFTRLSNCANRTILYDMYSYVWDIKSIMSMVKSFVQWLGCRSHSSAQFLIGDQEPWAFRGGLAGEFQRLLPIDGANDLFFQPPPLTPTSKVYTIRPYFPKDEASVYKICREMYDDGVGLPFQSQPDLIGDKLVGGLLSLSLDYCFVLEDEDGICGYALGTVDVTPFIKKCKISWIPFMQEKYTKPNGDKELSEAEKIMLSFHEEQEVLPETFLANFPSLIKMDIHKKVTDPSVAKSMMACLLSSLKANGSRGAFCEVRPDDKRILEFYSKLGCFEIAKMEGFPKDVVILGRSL
Protocol: Experimental Procedure for Kinetic Analyses: Enzymatic reactions were carried out in PBS buffer (pH 7.4) using pNP-GlcNAc as a substrate (0.5 mM) and monitored continuously at 37° C. at 400 nm using a Cary 3E UV-VIS spectrophotometer equipped with a Peltier temperature controller. Reactions were pre-heated in a 500 μL quartz cuvette for approximately 5 minutes followed by addition of 10 μL enzyme via syringe (final enzyme concentration 0.002 mg/mL). Reaction velocities were determined by linear regression of the linear region of the reaction progress curve between the first and third minutes. An inhibitor concentration range of ⅕ to 5 times K1 was used in each case.
For example, the K1 values for inhibition of O-GlcNAcase shown in Table 4 were obtained for compounds 2, 4, and 6. All K1 values were determined using linear regression of a Dixon plots.

Compound | stability on storage [1] | Ki (O-GlcNAcase)
CCCC1=N[C@@H]2[C@@H](O)[C@H](O)[C@@H](CN)O[C@@H]2S1 [Compound 51, (3aR,5R,6S,7R,7aR)-5-(aminomethyl)-2-propyl-5,6,7,7a-tetrahydro-3aH-pyrano[3,2-d]thiazole-6,7-diol] | decompose slowly with time | 
OC[C@H]1O[C@@H]2SC(CF)=N[C@@H]2[C@@H](O)[C@@H]1O [Compound 2, (3aR,5R,6S,7R,7aR)-2-(fluoromethyl)-5-(hydroxymethyl)-5,6,7,7a-tetrahydro-3aH-pyrano[3,2-d]thiazole-6,7-diol] |  | 10 µM
OC[C@H]1O[C@@H]2SC(C(F)(F)F)=N[C@@H]2[C@@H](O)[C@@H]1O [Compound 6, (3aR,5R,6S,7R,7aR)-5-(hydroxymethyl)-2-(trifluoromethyl)-5,6,7,7a-tetrahydro-3aH-pyrano[3,2-d]thiazole-6,7-diol] |  | 5.6 µM
OC[C@H]1O[C@@H]2SC(C(F)F)=N[C@@H]2[C@@H](O)[C@@H]1O [Compound 4, (3aR,5R,6S,7R,7aR)-2-(difluoromethyl)-5-(hydroxymethyl)-5,6,7,7a-tetrahydro-3aH-pyrano[3,2-d]thiazole-6,7-diol] |  | 7.7 µM
